# Experimental data taken from US10414779B2, “Fused [1,2]imidazo[4,5-C] ring compounds substituted with guanidino groups” (3M INNOVATIVE PROPERTIES COMPANY, priority 2016, dated 2019).
# Where a name gives a salt, the structure may show the parent alone.
# Experiments:
# [1] = test system: Human peripheral blood mononuclear cells (PBMC); assay: Cytokine induction in human cells (PBMC), IFN-gamma by multiplex bead assay; assay type: cell-based; conditions: 21-24 hrs, lowest concentration inducing cytokine at least 2× negative control, tested at 10, 1, 0.1, 0.01, 0.001, 0.0001 micromolar
# Procedure: (§1) Cytokine Induction in Human Cells
# (§2) Whole blood was obtained from healthy human donors and collected by venipuncture into vacutainer tubes or syringes containing EDTA. Human peripheral blood mononuclear cells (PBMC) were purified from the whole blood by density gradient centrifugation. Histopaque 1077 (15 mL, Sigma, St. Louis, Mo.) was transferred to 6×50 mL sterile polypropylene conical tubes. The Histopaque was overlayed with 15-25 mL of blood diluted 1:2 in Hank's Balanced Salts Solution (HBSS) (Gibco, Life Technology, Grand Island N.Y.). The tubes were then centrifuged at 1370 rpm for 30 minutes at 20° C., with no brake (400×g, GH 3.8A Rotor).
# (§3) The interface (buffy coat) containing the PBMC was collected and placed in a new sterile 50 mL conical polypropylene centrifuge tube. […]
# (§4) The number of viable cells were determined by counting with a Miltenyi FACS instrument (Miltenyi Biotec Inc., San Diego, Calif.) or by using a hemacytometer. […] Ten microliters of the diluted cells were then applied to the hemacytometer, and the number of viable PBMC were determined by microscopy. […]
# (§5) IFN-alpha cytokine levels (pg/mL) were measured by ELISA (human IFN-α, pan specific, Mabtech, Cinncinnati, Ohio), IFN-gamma, TNF-alpha, and IP-10 cytokine levels (pg/mL) were measured by multiplex bead assay (magnetic beads, R & D Systems Minneapolis, Minn.) according to the manufacturer's instructions. […]
# [2] = test system: Human peripheral blood mononuclear cells (PBMC); assay: Cytokine induction in human cells (PBMC), IFN-alpha by ELISA; assay type: cell-based; conditions: 21-24 hrs, lowest concentration inducing cytokine at least 2× negative control, tested at 10, 1, 0.1, 0.01, 0.001, 0.0001 micromolar
# Procedure: as §1, §2, §3, §4, §5
smiles,measurement,setting,value
"N=C(N)NCCC[C@H]1COCc2nc3c(N)nc4ccccc4c3n21 [Example 1, (11S)-1-{3-[6-amino-10,11-dihydro-8H-[1,4]oxazino[4′,3′:1,2]imidazo[4,5-c]quinolin-11-yl]propyl}guanidine dihydrochloride]",MEC to Induce Cytokine IFN-gamma,[1],1.0 µM
same,MEC to Induce Cytokine IFN-alpha,[2],1.0 µM
